Data as given in patent US5550128A, “Enantiomers of gamma methylene 10-deaza aminopterin and process for preparing the same” (priority 1994, dated 1996).

Experiments:
[1] = Antitumor activity by continuous i.v. infusion (C.I.) × 5d against human HCT-8 ileocecal xenograft; format: in vivo, human (xenograft in nude mice); settings: mouse, in vivo, iv; 0.25 mg/kg, C.I. × 5d; read-out: death
Description: (§1) Antitumor Activity of MDAM by C.I. × 5d
(§2) against HUMAN HCT-8 Ileocecal Xenograft
(§3) MIR: Maximum inhibitory rate.
(§4) TD: Tumor doubling time.
(§5) CR: Complete Regression.
(§6) PR: Partial Regression.
(§7) MWL: Maximum Weight Loss.

[2] = tested on: Human HCT-8 Ileocecal Xenograft; test: as above; format: in vivo, human (xenograft in nude mice); settings: for CR: Complete Regression / MIR: Maximum inhibitory rate / PR: Partial Regression / TD: Tumor doubling time: C.I. × 5d
Description: as §1, §2, §3, §4, §5, §6, §7

[3] = tested on: Human HCT-8 Ileocecal Xenograft; test: Antitumor activity by I.V. push, daily × 5, against human HCT-8 ileocecal xenograft
Description: [M. G. Nair and Ann Abraham, U.S. Pat. No. 4,996,207 (1991); M. G. Nair, U.S. Pat. No. 5,073,554 (1991 )]. […] [Ann Abraham, M. G. Nair, et al. Advanced in Exp. Med. and Biol. 663-666 (1993)].
MIR: Maximum inhibitory rate. TD: Tumor doubling time.
CR: Complete Regression. PR Partial Regression.
as §7

CN(Cc1cnc2nc(N)nc(N)c2n1)c1ccc(C(=O)N[C@@H](CCC(=O)O)C(=O)O)cc1 [MTX, methotrexate, reference compound]
mortality [1]: 100% | CR: Complete Regression ([2]; 0.1 mg/kg): 0% | MIR: Maximum inhibitory rate ([2]; 0.1 mg/kg): 50.6 ± 9.6% | PR: Partial Regression ([2]; 0.1 mg/kg): 0% | TD: Tumor doubling time ([2]; 0.1 mg/kg): 4.8 ± 0.4 days | CR: Complete Regression ([2]; 0.2 mg/kg): 0% | MIR: Maximum inhibitory rate ([2]; 0.2 mg/kg): 52.8 ± 8.5% | PR: Partial Regression ([2]; 0.2 mg/kg): 0% | TD: Tumor doubling time ([2]; 0.2 mg/kg): 5 ± 0.5 days | CR: Complete Regression ([2]; 0.25 mg/kg): 0% | PR: Partial Regression ([2]; 0.25 mg/kg): 0% | measurable antitumor activity ([2]; continuous 5 day iv infusion, HCT-8 xenograft): did not exhibit any measurable antitumor activity | CR: Complete Regression ([3]; 1 mg/kg, i.v. push daily × 5): 0% | MIR: Maximum inhibitory rate ([3]; 1 mg/kg, i.v. push daily × 5): 29.8 ± 8.6% | MWL: Maximum Weight Loss ([3]; 1 mg/kg, i.v. push daily × 5): 14.0 ± 3.0% | PR: Partial Regression ([3]; 1 mg/kg, i.v. push daily × 5): 0% | TD: Tumor doubling time ([3]; 1 mg/kg, i.v. push daily × 5): 4.6 ± 0.6 days | measurable antitumor activity ([3]; iv push, HCT-8 xenograft): did not exhibit any measurable antitumor activity
